Series [1] is described as follows: Thermodynamic solubility in FaSSIF. The series is classed as physicochemical. The following applies: thermodynamic from solid, room temperature, 24 hours shaking. As to the method: After shaking, the samples were centrifuged at 25° C. for 20 minutes at 4000 rpm. Filtrates were prepared using the Whatman Mini-UniPrep Syringeless Filter Device (PTFE filter media with polypropylene housing, pore size 0.45 μm) from Cytiva, and dilutions were performed as required. Quantification of all samples was carried out using an LC-UV system.

The nature of series [2]: Stability in simulated gastric fluid (SGF). The following applies: SGF pH 1.2, 37° C., 2 μM. The format is in vitro ADME. The method, then: The stability of compounds 1 to 4, and the control compound omeprazole, were measured in simulated gastric fluid (SGF: 0.2% w/v sodium chloride, 0.7% v/v hydrochloric acid, and 0.32% w/v pepsin in deionized water, pH 1.2±0.05). Stock solutions of the compounds (10 mM) were diluted to 200 μM in DMSO, then duplicate 2 μL aliquots added to 96-well plates for time points 0, 1, 2, 6, and 24 hours. SGF (198 μL) was added to all wells except those for time 0, to give a starting compound concentration of 2 μM; and the samples were incubated at 37° C. with agitation at 600 rpm for the prescribed times. After incubation, 200 μL of each sample was extracted and mixed with 400 μL cold ACN containing 200 ng/mL tolbutamide and labetalol as internal standards. The samples were centrifuged at […] for 20 minutes at 4° C., and the supernatants (60 μL) each diluted with purified water (180 μL) for LC/MS/MS analysis. The percentage of the test compound remaining at each time point was calculated based on the ratio of the peak area of the analyte to the internal standards.

A short description of series [3]: Intestinal stability, human intestinal S9. The series is classed as in vitro ADME. As to the method: (§1) The stability of compounds 1 and 2, and the control compound 7-hydroxycoumarin, were measured using human, rat, and mouse intestinal S9 fractions (Xenotech). Test compound working solutions were prepared by diluting 5 μL of 10 mM stock solutions in DMSO with 495 μL AN. S9 solutions were prepared by diluting the obtained S9 solutions to 1.0 mg/mL in 100 mM potassium phosphate buffer at pH 7.4 containing 10 mM D-saccharic acid-1,4-lactone. An Apricot automation workstation was used to add 100 μL/well of S9 solution to all reaction plates (Blank, T0, T5, T15, T30, T45, T60 and NCF60); 2 μL/well of compound working solutions were added to all 96-well reaction plates except the blank (T0, T5, T15, T30, T45, T60, and NCF60); 600 μL/well of stop solution (4° C. ACN containing 200 ng/mL tolbutamide and 200 ng/mL labetalol as internal standards) was added to the T0 reaction plate; all plates were pre-incubated at 37° C. for 10 minutes; a cofactor regenerating system (98 μL/well) was added, excluding the NCF60 plate which instead received 98 μL/well of 100 mM potassium phosphate buffer. All plates were then incubated at 37° C. To terminate reactions, 600 μL/well of stop solution was applied at specific end time points. After sealing and a 10-minute shaking, plates were centrifuged at 4000 rpm and 4° C. for 20 minutes. Concurrently, 300 μL/well of HPLC grade water was loaded onto eight new 96-well bioanalysis plates. Post-centrifugation, 100 μL supernatant from each reaction plate was transferred to its corresponding bioanalysis plate, shaken for 10 minutes, and then subjected to LC-MS/MS analysis (Shimadzu LC-40D LC system coupled to a Sciex Qtrap 6500 Plus mass spectrometer, using both positive and negative ion modes).

Series [4] is described as follows: Intestinal stability, mouse intestinal S9. The format is in vitro ADME. The following applies: intestinal S9 fraction. As to the method: as §1
Series [5] in a line: Intestinal stability, rat intestinal S9. The series is classed as in vitro ADME. The method, then: as §1
A short description of series [6]: Conjugate formation in intestinal S9 incubations. The series is classed as in vitro ADME, human, rat, mouse. The method, then:
as §1, with “Concurrently, 300 μL/well of HPLC grade water was loaded onto eight new 96-well bioanalysis plates. Post-centrifugation, 100 μL supernatant from each reaction plate was transferred to its corresponding bioanalysis plate, shaken for 10 minutes, and then subjected to LC-MS/MS analysis (Shimadzu LC-40D LC system coupled to a Sciex Qtrap 6500 Plus mass spectrometer, using both positive and negative ion modes).” left out

Series [7] can be described thus: Pharmacokinetics in the rat, dosing in solution. The following applies: rat, in vivo, 25 mg/kg.
The conditions of series [8]: Wang et al.; cited from earlier work.
Setting [9] is: intestinal S9 fraction, pH 7.4, read-out: intrinsic clearance rate.

SMILES strings stand for the structures. Read-outs that look alike come from different tables or passages of the source.

As usually defined, the half-life is the time in which the quantity being followed falls by half. Read a low half-life as rapid decline. What is called Cmax is the peak of the concentration-time curve. The Tmax is the time at which the peak concentration occurs.

Take `O=c1c(-c2ccc(OCOP(=O)(O)O)cc2)coc2cc(O)cc(O)c12` [Compound 1, (4-(5,7-Dihydroxy-4-oxo-4H-chromen-3-yl)phenoxy)methyl dihydrogen phosphate]: the solubility at 24 h in series [1] (read-out: Solubility) worked out at 12.5 mM; in series [1] (read-out: Solubility (μg/mL)) it was 4770 µg/mL. In series [2], the “Percentage remaining at time: 1 hour” value was 94.4%. In addition, the “Percentage remaining at time: 2 hours” value in series [2] is given as 91.5%. For the same compound, in series [2], the “Percentage remaining at time: 6 hours” value was 83.8%. The “Percentage remaining at time: 24 hours” value in series [2] was 42.1%. In addition, the “Percentage remaining at time: 0” value in series [2] is 100%. For the same compound, the “normalized control factor remaining” value in series [3] is 24.9%; in series [5], 30.4%. In addition, the half-life at 1 µM in series [3] (intestinal S9 fraction, pH 7.4) was determined as 28.7 min; in series [4] (pH 7.4), 29.7 min; in series [5] (intestinal S9 fraction, pH 7.4) it was 2.6 min. Further, the microsomal CLint at 1 µM came to 48.4 µL/min/mg in series [3] (setting [9]); 46.7 µL/min/mg in series [4] (pH 7.4, read-out: intrinsic clearance rate); 526 µL/min/mg in series [5] (setting [9]). In series [6], the “formation of glucuronidation, sulfation, and glutathione conjugates” value is “noticeable absence”. In series [7] (male, SD), the Cmax is about 15 ng/mL. In addition, the Tmax in series [7] (male, SD) is about 8 min. Besides, the “decline of plasma concentration of dosed compound” value in series [7] is reported as “very rapid decline in concentration”.

Turning to `O=c1c(-c2ccc(OCOP(=O)(O)O)cc2)coc2cc(OCOP(=O)(O)O)cc(O)c12` [Compound 3, ((5-Hydroxy-4-oxo-3-(4-((phosphonooxy)methoxy)phenyl)-4H-chromen-7-yl)oxy)methyl dihydrogen phosphate], the solubility at 24 h in series [1] (read-out: Solubility) was determined as 10.2 mM. In series [1] (read-out: Solubility (μg/mL)), the solubility at 24 h came out at 5000 µg/mL. Further, in series [2], the “Percentage remaining at time: 1 hour” value is on record as 95.1%, the “Percentage remaining at time: 2 hours” value is 101%, the “Percentage remaining at time: 6 hours” value is given as 96.1% and the “Percentage remaining at time: 24 hours” value is 51.4%. Moreover, the “Percentage remaining at time: 0” value in series [2] is 100%.

Take `CC(C)(CCCOP(=O)(O)O)C(=O)Oc1ccc(-c2coc3cc(O)cc(O)c3c2=O)cc1` [Compound 4, 4-(5,7-Dihydroxy-4-oxo-4H-chromen-3-yl)phenyl 2,2-dimethyl-5-(phosphonooxy)pentanoate]: the solubility at 24 h in series [1] (read-out: Solubility) turned out to be 0.612 mM. Further, the solubility at 24 h in series [1] (read-out: Solubility (μg/mL)) turned out to be 293 µg/mL. Besides, in series [2], the “Percentage remaining at time: 1 hour” value is given as 104%, the “Percentage remaining at time: 2 hours” value was 110%, the “Percentage remaining at time: 6 hours” value is 114% and the “Percentage remaining at time: 24 hours” value was 106%. In addition, the “Percentage remaining at time: 0” value in series [2] is reported as 100%.

In the case of `O=c1c(-c2ccc(O)cc2)coc2cc(OP(=O)(O)O)cc(O)c12` [Genistein-7-O-phosphate, genistein 7-O-phosphate, reference compound], the solubility at 24 h in series [1] (read-out: Solubility) came to 3.57 mM; in series [1] (read-out: Solubility (μg/mL)), 1250 µg/mL. In series [8], the bioavailability result is recorded as “more bioavailable than aglyconic genistein”. Further, the water solubility entry in series [8] is given as “practically water soluble”.

Consider `COc1ccc2[nH]c([S+]([O-])Cc3ncc(C)c(OC)c3C)nc2c1` (stereo not drawn) [Omeprazole, omeprazole, reference compound], for which, in series [2], the “Percentage remaining at time: 1 hour” value is on record as 35.4%, the “Percentage remaining at time: 2 hours” value is given as 23.1%, the “Percentage remaining at time: 6 hours” value was 4.2% and the “Percentage remaining at time: 24 hours” value is on record as 0%. For the same compound, the “Percentage remaining at time: 0” value in series [2] is given as 100%.

Values taken from US20250170154A1 (GreenStone Biosciences, Inc., priority 2023, published 2025).
